pEC50: −log10 of the molar value. Square brackets hold non-standard residues; d marks the D form. Peptide text beside a SMILES is read from it. d2Nal = N[C@H](Cc1ccc2ccccc2c1)C(=O)O; 3Amb = NCc1cccc(C(=O)O)c1
Species: Rattus norvegicus
Assay: In vitro release of growth hormone by rat pituitary assay
Type: functional

Compound	pEC50
NCCCC[C@H](NC(=O)[C@@H](Cc1ccccc1)NC(=O)[C@@H](Cc1ccc2ccccc2c1)NC(=O)c1sccc1CN)C(N)=O	7.57
NCCCC[C@H](NC(=O)[C@@H](Cc1ccccc1)NC(=O)[C@@H](Cc1ccc2ccccc2c1)NC(=O)c1ccccc1CN)C(N)=O	7.07
NCCCC[C@H](NC(=O)[C@@H](Cc1ccccc1)NC(=O)[C@@H](Cc1ccc2ccccc2c1)NC(=O)c1cc(CN)cs1)C(N)=O	6.17
C[C@H](N)C(=O)N[C@@H](Cc1c[nH]cn1)C(=O)N[C@H](Cc1ccc2ccccc2c1)C(=O)N[C@H](Cc1ccccc1)C(=O)N[C@@H](CCCCN)C(N)=O	8.22
NCCCC[C@H](NC(=O)[C@@H](Cc1ccccc1)NC(=O)[C@@H](Cc1ccc2ccccc2c1)NC(=O)c1ccc(CN)s1)C(N)=O	6.68
NCCCC[C@H](NC(=O)[C@@H](Cc1ccccc1)NC(=O)[C@@H](Cc1ccc2ccccc2c1)NC(=O)c1cccc(CN)c1)C(N)=O (H-[3Amb][d2Nal][dF]K-NH2)	8.15

Reference: ChEMBL document CHEMBL1151091, “Aminomethylthiophene-2-carboxylic acids as dipeptide mimetic in new growth hormone secretagogues” (Bioorg Med Chem Lett, 1997)
